Here are results for 22 compounds from patent US11234437B2 (priority 2017, dated 2022).

Data set [1] deals with Gibberella zeae (Fusarium graminearum). The data set can be described thus: whole plant or invertebrate. Format: in vivo. The note with it: in Triticum aestivum, read-out: control of Gibberella zeae.
Data set [2] deals with Monographella nivalis (Microdochium nivale). Put plainly: Monographella nivalis (Microdochium nivale) / liquid culture (foot rot cereals). It is filed as cell-based. The note with it: compared to untreated control. How it is done: Monographella nivalis (Microdochium nivale)/Liquid Culture (Foot Rot Cereals)
Conidia of the fungus from cryogenic storage are directly mixed into nutrient broth (PDB potato dextrose broth). After placing a (DMSO) solution of test compound into a microtiter plate (96-well format), the nutrient broth containing the fungal spores is added. The test plates are incubated at 24° C. and the inhibition of growth is determined photometrically 4-5 days after application.

Data set [3] concerns Magnaporthe grisea (Pyricularia oryzae). The data set can be described thus: microbe, parasite or virus in culture. It is filed as cell-based. The following applies: read-out: control of Magnaporthe grisea.
The next data set relates to Gaeumannomyces graminis. Put plainly: Gaeumannomyces graminis / liquid culture (take-all of cereals). It is filed as cell-based. The following applies: compared to untreated control. Here is the method:
Mycelial fragments of the fungus from cryogenic storage were directly mixed into nutrient broth (PDB potato dextrose broth). After placing a (DMSO) solution of test compound into a microtiter plate (96-well format), the nutrient broth containing the fungal spores is added. The test plates are incubated at 24° C. and the inhibition of growth is determined photometrically 4-5 days after application.

For orientation: melting point means the temperature, or range, at which the solid turns liquid. `C=C(C)CC(C)(Cc1ccccc1)NC(=O)c1cnc2c(F)c(F)ccc2c1` (stereo not shown) [X.010, N-(1-benzyl-1,3-dimethyl-but-3-enyl)-7,8-difluoro-quinoline-3-carboxamide] had a melting point of 94 to 96 °C. Further, the pest or weed control at 200 ppm in data set [1] was at least 80%. Also, the inhibition of growth at 20 ppm in data set [2] was at least 80%. The inhibition of growth at 20 ppm in data set [3] is at least 80%.

On to `CC(C)(F)C[C@](C)(Cc1ccccc1)NC(=O)c1cnc2c(F)cccc2c1` [Compound F-16, N-[(1S)-1-benzyl-3-fluoro-1,3-dimethyl-butyl]-8-fluoro-quinoline-3-carboxamide], for which, in data set [1], the pest or weed control at 200 ppm is at least 80%. For the same compound, the inhibition of growth at 20 ppm in data set [2] and in data set [3] was at least 80% throughout.

For `C=C(C)C[C@](C)(Cc1ccccc1)NC(=O)c1cnc2c(F)cccc2c1` [Compound F-5, N-[(1R)-1-benzyl-1,3-dimethyl-but-3-enyl]-8-fluoro-quinoline-3-carboxamide], in data set [1], the pest or weed control at 200 ppm was at least 80%. The inhibition of growth at 20 ppm in data set [2] and in data set [3] was at least 80% each time.

As to `C[C@@](Cc1ccccc1)(CC(F)(F)F)NC(=O)c1cnc2c(F)cccc2c1` [Compound F-8, N-[(1R)-1-benzyl-3,3,3-trifluoro-1-methyl-propyl]-8-fluoro-quinoline-3-carboxamide], in data set [3], the inhibition of growth at 20 ppm is at least 80%.

In the case of `C[C@@](Cc1ccccc1)(CC(F)(F)F)NC(=O)c1cnc2c(Cl)cccc2c1` [Compound F-20, N-[(1R)-1-benzyl-3,3,3-trifluoro-1-methyl-propyl]-8-chloro-quinoline-3-carboxamide], the inhibition of growth at 20 ppm in data set [3] was at least 80%.

For `CC(C)C[C@@](C)(Cc1ccccc1)NC(=O)c1cnc2c(F)cccc2c1` [Compound F-1, N-[(1S)-1-benzyl-1,3-dimethyl-butyl]-8-fluoro-quinoline-3-carboxamide], the inhibition of growth at 20 ppm (in the data set on Gaeumannomyces graminis; in data set [2]; in data set [3]) was at least 80% throughout.

Take `C[C@](Cc1ccccc1)(CC(F)(F)F)NC(=O)c1cnc2c(F)cccc2c1` [Compound F-7, N-[(1S)-1-benzyl-3,3,3-trifluoro-1-methyl-propyl]-8-fluoro-quinoline-3-carboxamide]: the pest or weed control at 200 ppm in data set [1] is at least 80%. Also, the inhibition of growth at 20 ppm in data set [3] was at least 80%.

Consider `CC(C)C[C@](C)(Cc1ccccc1)NC(=O)c1cnc2c(F)c(F)ccc2c1` [Compound F-14, N-[(1R)-1-benzyl-1,3-dimethyl-butyl]-7,8-difluoro-quinoline-3-carboxamide], for which, in data set [3], the inhibition of growth at 20 ppm is at least 80%.

For `C[C@@](Cc1ccccc1)(CC(F)(F)F)NC(=O)c1cnc2c(F)c(F)ccc2c1` [Compound F-22, N-[(1R)-1-benzyl-3,3,3-trifluoro-1-methyl-propyl]-7,8-difluoro-quinoline-3-carboxamide], the pest or weed control at 200 ppm in data set [1] is at least 80%. Also, the inhibition of growth at 20 ppm in data set [3] is at least 80%.

Turning to `CC(F)(F)C[C@@](C)(Cc1ccccc1)NC(=O)c1cnc2c(F)cccc2c1` [Compound F-31, N-[(1R)-1-benzyl-3,3-difluoro-1-methyl-butyl]-8-fluoro-quinoline-3-carboxamide], the pest or weed control at 200 ppm in data set [1] was at least 80%. Further, the inhibition of growth at 20 ppm in data set [2] and in data set [3] was at least 80% in each case.

`CC(F)(F)CC(C)(Cc1ccccc1)NC(=O)c1cnc2c(F)cccc2c1` (stereo not shown) [X.014, N-(1-benzyl-3,3-difluoro-1-methyl-butyl)-8-fluoro-quinoline-3-carboxamide]: the pest or weed control at 200 ppm in data set [1] was at least 80%. For the same compound, the inhibition of growth at 20 ppm in data set [3] was at least 80%.

Take `CC(C)(C)C[C@](C)(Cc1ccccc1)NC(=O)c1cnc2c(F)cccc2c1` [Compound F-10, N-[(1R)-1-benzyl-1,3,3-trimethyl-butyl]-8-fluoro-quinoline-3-carboxamide]: the inhibition of growth at 20 ppm with Gaeumannomyces graminis is at least 80%. Also, in data set [1], the pest or weed control at 200 ppm was at least 80%.

`C=C(C)C[C@@](C)(Cc1ccccc1)NC(=O)c1cnc2c(F)c(F)ccc2c1` [Compound F-12, N-[(1S)-1-benzyl-1,3-dimethyl-but-3-enyl]-7,8-difluoro-quinoline-3-carboxamide]: the inhibition of growth at 20 ppm in data set [2] and in data set [3] was at least 80% throughout.

Turning to `CC(C)C[C@](C)(Cc1ccccc1)NC(=O)c1cnc2c(F)cccc2c1` [Compound F-2, N-[(1R)-1-benzyl-1,3-dimethyl-butyl]-8-fluoro-quinoline-3-carboxamide], the inhibition of growth at 20 ppm (with Gaeumannomyces graminis; in data set [2]; in data set [3]) was at least 80% in each case.

The compound `Cc1cccc2cc(C(=O)NC(C)(Cc3ccccc3)CC(F)(F)F)cnc12` (stereo not shown) [X.004, N-(1-benzyl-3,3,3-trifluoro-1-methyl-propyl)-8-methyl-quinoline-3-carboxamide] returned a melting point of 120 to 123 °C. In addition, in data set [1], the pest or weed control at 200 ppm is at least 80%. In data set [2], this compound registered an inhibition of growth at 20 ppm of at least 80%. Also, the inhibition of growth at 20 ppm in data set [3] is at least 80%.

With `CC(C)(F)CC(C)(Cc1ccccc1)NC(=O)c1cnc2c(F)cccc2c1` (stereo not shown) [X.015, N-(1-benzyl-3-fluoro-1,3-dimethyl-butyl)-8-fluoro-quinoline-3-carboxamide], in data set [1], the pest or weed control at 200 ppm was at least 80%. Moreover, the inhibition of growth at 20 ppm in data set [2] and in data set [3] was at least 80% each time.

For the compound `CC(C)(C)CC(C)(Cc1ccccc1)NC(=O)c1cnc2c(F)cccc2c1` (stereo not shown) [X.016, N-(1-benzyl-1,3,3-trimethyl-butyl)-8-fluoro-quinoline-3-carboxamide], the melting point is 48 to 50 °C. Further, in data set [1], the pest or weed control at 200 ppm is at least 80%. Further, the inhibition of growth at 20 ppm in data set [2] is at least 80%. The inhibition of growth at 20 ppm in data set [3] was at least 80%.

As to `CC(C)(F)C[C@@](C)(Cc1ccccc1)NC(=O)c1cnc2c(F)cccc2c1` [Compound F-15, N-[(1R)-1-benzyl-3-fluoro-1,3-dimethyl-butyl]-8-fluoro-quinoline-3-carboxamide], in data set [1], the pest or weed control at 200 ppm was at least 80%. The inhibition of growth at 20 ppm in data set [2] and in data set [3] was at least 80% each time.

As for `C=C(C)C[C@](C)(Cc1ccccc1)NC(=O)c1cnc2c(F)c(F)ccc2c1` [Compound F-11, N-[(1R)-1-benzyl-1,3-dimethyl-but-3-enyl]-7,8-difluoro-quinoline-3-carboxamide], in data set [1], the pest or weed control at 200 ppm was at least 80%. Moreover, the inhibition of growth at 20 ppm in data set [3] was at least 80%.

Take `CC(C)C[C@](C)(Cc1ccccc1)NC(=O)c1cnc2ccccc2c1` [Compound F-4, N-[(1R)-1-benzyl-1,3-dimethyl-butyl]quinoline-3-carboxamide]: the inhibition of growth at 20 ppm (in the data set on Gaeumannomyces graminis; in data set [3]) was at least 80% each time.

In turn, `CC(Cc1ccccc1)(CC(F)(F)F)NC(=O)c1cnc2c(Cl)cccc2c1` (stereo not shown) [X.005, N-(1-benzyl-3,3,3-trifluoro-1-methyl-propyl)-8-chloro-quinoline-3-carboxamide] came in with a melting point of 141 to 144 °C. Moreover, the pest or weed control at 200 ppm in data set [1] is at least 80%. This compound also yielded an inhibition of growth at 20 ppm in data set [2] of at least 80%. Moreover, the inhibition of growth at 20 ppm in data set [3] was at least 80%.

As for `Cc1cccc2cc(C(=O)N[C@](C)(Cc3ccccc3)CC(F)(F)F)cnc12` [Compound F-18, N-[(1R)-1-benzyl-3,3,3-trifluoro-1-methyl-propyl]-8-methyl-quinoline-3-carboxamide], the inhibition of growth at 20 ppm in data set [3] is at least 80%.
